Data from paper PMC11267548 (JACS Au, 2024).

Target: T1, ScGPUT (Solitalea canadensis, UniProt H8KMA8)
T1 sequence (H8KMA8 1-293): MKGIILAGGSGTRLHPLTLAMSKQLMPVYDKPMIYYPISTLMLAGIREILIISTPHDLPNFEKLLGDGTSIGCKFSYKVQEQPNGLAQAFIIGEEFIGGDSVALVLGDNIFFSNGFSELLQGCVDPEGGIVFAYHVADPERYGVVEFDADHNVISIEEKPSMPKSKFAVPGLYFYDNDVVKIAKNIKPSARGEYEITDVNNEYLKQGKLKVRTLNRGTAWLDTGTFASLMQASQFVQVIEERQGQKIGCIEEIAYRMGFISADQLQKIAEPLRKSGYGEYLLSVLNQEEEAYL
Assay: conversion of xylose-1-phosphate to UDP-xylose, TLC
Type: biochemical
Conditions: read-out: % inhibition at 10 mM

SMILES | inhibition at 10000 µM [%]
Nc1ncnc2c1ncn2[C@@H]1O[C@H](COP(=O)(O)OP(=O)(O)OP(=O)(O)O)[C@@H](O)[C@H]1O [ATP] | > 50
Nc1ncnc2c1ncn2[C@@H]1O[C@H](COP(=O)(O)OP(=O)(O)O)[C@@H](O)[C@H]1O [ADP] | > 50
